Legend:
[1] = system: Z138 human B-Cell Non-Hodgkin-lymphoma (NHL) cells; assay: Tumor growth inhibition study in vivo, Z138 MCL xenografts in SCID beige mice; conditions: 10 mg/kg i.v. q7d
Excerpt: Z138 human B-Cell Non-Hodgkin-lymphoma (NHL) cells were originally obtained from Glycart (Mantle cell lymphoma-MCL). […] Passage 2 was used for transplantation.
Animal treatment started at day of randomisation, 14 days after s.c. cell transplantation.
Therefore s.c. xenografts models in SCID beige mice are not appropriate for mimicking human ADCC mediated effect with glycoengineered modified antibodies.

[2] = target: T1, CD20 on Raji cells (ATCC-No. CCL-86) (Homo sapiens, UniProt P11836); assay: Ratio of the binding capacities to CD20 on Raji cells compared to rituximab (direct immunofluorescence, Cy5, FACSArray); conditions: Cy5-conjugated antibodies, MFI at EC50, corrected for Cy5-labeling ratio
T1 construct: generated by direct immunofluorescence using the Burkitt's lymphoma cell line Raji (ATCC-No. CCL-86); host or cells: Raji cells
T1 sequence (P11836 1-297): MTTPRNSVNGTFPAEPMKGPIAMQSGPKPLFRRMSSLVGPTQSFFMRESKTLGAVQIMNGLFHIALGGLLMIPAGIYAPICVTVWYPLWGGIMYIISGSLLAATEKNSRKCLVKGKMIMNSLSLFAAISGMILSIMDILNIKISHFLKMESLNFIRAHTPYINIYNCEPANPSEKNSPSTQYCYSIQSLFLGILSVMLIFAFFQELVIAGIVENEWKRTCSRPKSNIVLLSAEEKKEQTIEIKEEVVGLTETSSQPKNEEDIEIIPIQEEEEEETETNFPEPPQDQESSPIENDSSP
Experimental: MFI is the mean fluorescent intensity. The “Cy5-labeling ratio” as used herein means the number of Cy5-label molecules per molecule antibody.
Raji cells (ATCC-No. CCL-86) were maintained in culture in RPMI-1640 medium (PanBiotech GmbH, Cat.-No. PO4-18500) containing 10% FCS (Gibco, Cat.-No. 10500-064). […] 5*10^5 cells per sample were stained for 30 min at 4° C. Afterwards, cells were washed in culture medium. Propidium iodide (PI) staining was used to exclude dead cells.
Then the ratio of the binding capacities to CD20 on Raji cells (ATCC-No. CCL-86) is calculated according to the following formula: […]

Row | Substance | Antitumor activity, later outcome [1] | Difference in antitumor activity between wt and glycoengineered versions [1] | Antitumor activity at time of control termination ([1]; 19 days after treatment initiation) | Ratio of the binding capacities to CD20 on Raji cells compared to rituximab [2]
1 | B-HH6-B-KV1 wt: Type II anti-CD20 antibody, humanized B-Ly1 B-HH6-B-KV1 wildtype (non-glycoengineered) | most of Z138 tumor xenografts showed complete remission | No significant differences | all antibody tumors regressed | –
2 | B-HH6-B-KV1: Type II anti-CD20 antibody (humanized B-Ly1 antibody) of Example 2; FIG. 2 legend calls it B-HH6-B-KV1 GE | – | – | – | reduces binding capacity compared to rituximab

Source: patent US20150056186A1, “COMBINATION THERAPY OF A TYPE II ANTI-CD20 ANTIBODY WITH AN ANTI-BCL-2 ACTIVE AGENT” (Hoffmann-La Roche Inc., priority 2007, published 2015)
